Measurements published in paper PMC8763382, “2-Sulfonylpyrimidines as Privileged Warheads for the Development of S. aureus Sortase A Inhibitors” (Frontiers in Molecular Biosciences, 2022).
Values joined by “and” are separate entries in the source; they are usually repeats but may differ in a detail not shown here. Equal values may be shown once.

Experiments:
[1] = cysteine reactivity assay (competitive fluorescence assay with probe 8); type: physicochemical; conditions: phosphate buffer (1×PBS) pH 7.5
Text: In order to study the kinetics of sulfonylpyrimidines reacting with free cysteine in solution, a strategy for a competitive fluorescence-based assay was adapted from previous works ([Epps and Taylor, 2001]; [Sameshima et al., 2017]). […] The reaction of probe 8 with cysteine liberates 4-methylumbelliferone as a fluorometrically detectable product (Figure 7A), and thus, the fluorescence increase can be described by the second-order rate constant k probe (Equation 1).
Upon the addition of competitive and irreversible cysteine modifiers such as sulfonylpyrimidines, the fluorescence increase of the probe reaction was hyperbolically attenuated (Figure 7B). According to the conceptual deduction described previously ([Epps and Taylor, 2001]; [Sameshima et al., 2017]), the experimental fluorescence curves can be analyzed by nonlinear regression as first-order reaction progress curves (Equation 2). The parameter k obs describes the curvature corresponding to the sum of the competing kinetics (Equation 3). Under the assumptions that 1) the competitive reaction between sulfonylpyrimidines vs. probe with cysteine is started by simultaneous addition, and 2) sulfonylpyrimidines are added at a much higher concentration than cysteine (5 µM) and the probe (5 µM), the k obs values depend substantially on the k chem value. The compound-specific second-order inactivation parameter k chem can be determined by linear regression from the k obs values of the dilution series (Equation 4). d[FL]/dt=kprobe[Cys][probe] (1) FL=[Cys]total⋅kprobe [probe]/kprobe [probe] + kchem [sulfonylpyrimidine](1−e^−kobs⋅t) (2) kobs=kchem [sulfonylpyrimidine]+kprobe [probe] (3) kchem=kobs/[sulfonylpyrimidine] (4)
Kinetic characterization of the reaction between sulfonylpyrimidines and cysteine was performed in degassed phosphate buffer (1×PBS, pH 7.5) or individual cases in bicarbonate buffer (20 mM NaHCO3, 100 mM NaCl, pH 7.5). Three technical replicates were carried out for each sulfonylpyrimidine in black flat-bottom 96-well plates. For this purpose, 50 µL buffered solution (including 5% (v/v) DMSO) of the respective sulfonylpyrimidine derivative (final: 250–3 µM) and the cysteine reactive probe 8 (final: 5 µM) were premixed. Reactions were initiated by the addition of 50 µL cysteine (final: 5 µM), dissolved in the respective buffer, and monitored for 30 min at 30°C in an Infinite M200 Pro plate reader with λex 380 nm/λem 460 nm. To calculate k obs and k chem values, fluorescence curves were fitted using the same non-linear regression as for in vitro inhibition of SrtA ([Barthels et al., 2020]).

[2] = biological target: human protease urokinase plasminogen activator (uPA) (Homo sapiens, UniProt P00749); experiment: protease selectivity panel, fluorometric assay urokinase plasminogen activator; type: biochemical; conditions: 100 µM inhibitor; n. i. = no inhibition at 100 µM; read-out: uPA inhibition relative to the DMSO control
Protocol: (§1) To investigate how these sulfonylpyrimidines affect the activity of other cysteine and serine proteases, a selectivity panel was constructed from a matrix of 6 diverse sulfonylpyrimidines and 6 different proteases. The compounds were assayed at a final compound concentration of 100 µM for the cysteine proteases human cathepsin B (hCatB), cathepsin L (hCatL), and T. brucei rhodesain (Rd). Furthermore, the serine proteases NS2B-NS3 from Zika virus (ZIKV), the homologous protease from Dengue virus (DENV), and the human protease urokinase plasminogen activator (uPA) were tested for their susceptibility.
(§2) Fluorometric assays of the ZIKV/DENV NS2B/NS3 protease were performed as described previously ([Maus et al., 2021]). The assay was carried out in triplicates at 25°C in assay buffer (50 mM Tris, pH 9.0, 20% glycerol (v/v), and 1 mM CHAPS). 100 µM Boc-Gly-Arg-Arg-AMC (Bachem, Bubendorf, Switzerland) was used as a substrate. Fluorometric assays for cathepsin B, cathepsin L, and rhodesain (Calbiochem, Merck Millipore, Burlington, Massachusetts) were performed as described previously ([Klein et al., 2020a]). Cbz-Phe-Arg-AMC (Bachem, Bubendorf, Switzerland) was used as substrate (100 μM for cathepsin B, 6.5 μM for cathepsin L, and 10 µM for rhodesain). Fluorometric assays for urokinase plasminogen activator were performed as described previously ([Angelini et al., 2012]). 240 µM Cbz-Gly-Arg-Arg-AMC (Bachem, Bubendorf, Switzerland) was used as a substrate.

[3] = biological target: T1, NS2B-NS3 from Zika virus (ZIKV) (Zika virus, UniProt Q32ZE1); experiment: protease selectivity panel, fluorometric assay ZIKV NS2B/NS3 protease; type: biochemical; conditions: 100 µM inhibitor; read-out: ZIKV inhibition relative to the DMSO control
T1 construct: The ZIKV NS2B/NS3 protease is a serine protease and contains two non-catalytic cysteine residues
Protocol: as §1, §2

[4] = biological target: T2, S. aureus SrtA (Staphylococcus aureus, UniProt Q2FV99); experiment: fluorometric enzyme assay of SrtA transpeptidation (Abz-LPETG-Dap(Dnp)-OH substrate); type: biochemical; conditions: for S. I. (k 2nd/k chem): SrtA k 2nd over cysteine k chem; for k inact: maximum inactivation rate; for k inact / KI (inactivation) / k 2nd: Tris pH 7.50, n. i. = <20% inhibition at 100 µM; for KI (inactivation): read-out: KI, dissociation constant of the reversible enzyme-inhibitor complex; for inhibition at 100 µM: read-out: SrtA inhibition relative to the DMSO control; for k 2nd: second-order rate of inhibition
T2 construct: His tag (inferred from IMAC on a HisTrap column); made in house; host or cells: E. coli BL21 Gold (DE3)
Protocol: To evaluate the inhibition potency of the parent sulfonylpyrimidine 4, this compound was tested by means of a fluorometric enzyme assay with recombinantly expressed S. aureus SrtA ([Schmohl et al., 2017b]) and Abz-LPETG-Dap (Dnp)-OH as substrate. […] To verify the irreversible mode of inhibition, we determined the maximum inactivation rate k inact, the dissociation constant of the reversible enzyme-inhibitor complex KI, and the second-order rate of inhibition k 2nd. For compound 4, a k inact = 0.00065 s^−1 was found, which is very low compared to other covalent SrtA inhibitors ([Chan et al., 2017]; [Barthels et al., 2020]; [Jaudzems et al., 2020]).
Inhibition assays of S. aureus SrtA transpeptidation reactions were performed as described previously ([Barthels et al., 2020]). Briefly, the recombinantly expressed SrtA (final concentration: 1 µM) was incubated in assay buffer (50 mM Tris, 150 mM NaCl, 5 mM CaCl2, pH 7.50) with 25 µM of the FRET-pair substrate Abz-LPETG-Dap (Dnp)-OH (Genscript, Piscataway, New Jersey) and 0.5 mM tetraglycine (Sigma Aldrich, St. Louis, Missouri). Inhibitors were added from DMSO stocks. Reactions were initiated by addition of SrtA and monitored for 30 min at 30°C in an Infinite M200 Pro plate reader with λex 320 nm/λem 430 nm (Tecan, Männedorf, Switzerland). Three technical replicates were carried out for each inhibitor in black flat-bottom 96-well plates (Greiner bio-one, Kremsmünster, Austria). The enzyme kinetics of irreversible SrtA inactivation were analyzed as described previously ([Barthels et al., 2020]).

[5] = in-solution reaction with free cysteine (ESI-MS / LC/MS); type: physicochemical; conditions: for time to quantitative reaction with cysteine: compound 100 µM, cysteine 100 µM, phosphate buffered solution pH 7.5
Protocol: Thus, we determined the point of nucleophilic thiol attack by means of ESI mass spectrometry between the reaction of compound 7a and cysteine in phosphate buffered solution at pH 7.5.
Furthermore, the influence of different solvents on the reaction of sulfonylpyrimidines with thiols in solution was investigated.
To a solution of 100 µM cysteine in phosphate-buffered saline (1×, pH 7.5), compound 5a or 7a (100 μM, 5% DMSO) was added and incubated for 10 min at room temperature. The negative labeling control was performed by mock treatment with DMSO. Samples were analyzed by LC/MS using an Agilent 1100 series HPLC system with an Agilent Poroshell 120 EC-C18 column (150 × 2.10 mm 4 μm; mobile phase: ACN/H2O 45:55 + 0.1% formic acid; flow rate: 0.4 ml/min) and electron spray ionization with the Agilent 1100 series LC/MSD Trap in positive ionization mode.

[6] = biological target: T2, S. aureus SrtA; experiment: fluorometric enzyme assay of SrtA transpeptidation (Abz-LPETG-Dap(Dnp)-OH substrate); type: biochemical
[7] = biological target: T3, human cathepsin B (hCatB) (Homo sapiens, UniProt P07858); experiment: protease selectivity panel, fluorometric assay cathepsin B; type: biochemical; conditions: 100 µM inhibitor; read-out: CatB inhibition relative to the DMSO control
T3 construct: purchased Calbiochem, Merck Millipore
Protocol: as §1, §2

[8] = biological target: T4, cathepsin L (hCatL) (Homo sapiens, UniProt P07711); experiment: protease selectivity panel, fluorometric assay cathepsin L; type: biochemical; conditions: 100 µM inhibitor; read-out: CatL inhibition relative to the DMSO control
T4 construct: purchased Calbiochem, Merck Millipore
Protocol: as §1, §2

[9] = biological target: T5, T. brucei rhodesain (Rd) (Trypanosoma brucei rhodesiense, UniProt Q95PM0); experiment: protease selectivity panel, fluorometric assay rhodesain; type: biochemical; conditions: 100 µM inhibitor, n. i. = no inhibition at 100 µM; for inhibition at 100 µM: read-out: Rd inhibition relative to the DMSO control
T5 construct: purchased Calbiochem, Merck Millipore
Protocol: as §1, §2

[10] = biological target: DENV NS2B/NS3 protease (Dengue virus type 2, UniProt P29990); experiment: protease selectivity panel, fluorometric assay DENV NS2B/NS3 protease; type: biochemical; conditions: 100 µM inhibitor, n. i. = no inhibition at 100 µM; for inhibition at 100 µM: read-out: DENV inhibition relative to the DMSO control
Protocol: as §1, §2

[11] = biological target: T2, S. aureus SrtA; experiment: MALDI-TOF-MS of SrtA treated with inhibitor; conditions: SrtA 10 µM, inhibitor 100 µM, 1 h room temperature
Protocol: By using MALDI-TOF mass spectrometry, we aimed to determine the mode of inhibitory action in an enzymatic context. For the native SrtA, we found a protein mass at m/z = 17,806.
An S. aureus SrtA stock solution was diluted in 100 μL assay buffer (50 mM Tris, 150 mM NaCl, 5 mM CaCl2, pH 7.50) to a final concentration of 10 µM. Compound 7a was dissolved in DMSO and added to SrtA at a final concentration of 100 μM. The protein samples were allowed to react for 1 h at room temperature and subsequently, these were desalted using Zeba^TM Spin desalting columns (7 kDa MWCO, 0.5 ml; Thermo Scientific) according to the manufacturer’s instructions. For MALDI sample preparation, the desalted solution was mixed 1:1 with a matrix combination of equal amounts α-cyano-4-hydroxycinnamic acid (20 mg/ml dissolved in 70% acetonitrile and 30% of formic acid in water at a concentration of 5%) and 2,5-dihydroxybenzoic acid (20 mg/ml dissolved in 70% acetonitrile and 30% of trifluoroacetic acid in water at a concentration of 0.1%). The resulting mixture was allowed to dry slowly on the MALDI target prior to introduction into the mass spectrometer. […] The acceleration voltage was set to 20 kV and the mass spectra were recorded in positive ion linear mode. […] Samples were measured at a laser power of 60% with random walk ionization across the sample spot.

[12] = biological target: Cys184 (UniProt position 184, LTLITCDDYNE); experiment: NMR; conditions: free enzyme (inferred); cited from earlier work
[13] = biological target: His120 (UniProt position 120, ISIAGHTFIDR); conditions: free enzyme (inferred); cited from earlier work

DENV NS2B/NS3 protease, sequence (P29990 1398-1437): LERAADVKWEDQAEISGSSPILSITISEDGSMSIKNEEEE
DENV NS2B/NS3 protease, sequence (P29990 1476-1653): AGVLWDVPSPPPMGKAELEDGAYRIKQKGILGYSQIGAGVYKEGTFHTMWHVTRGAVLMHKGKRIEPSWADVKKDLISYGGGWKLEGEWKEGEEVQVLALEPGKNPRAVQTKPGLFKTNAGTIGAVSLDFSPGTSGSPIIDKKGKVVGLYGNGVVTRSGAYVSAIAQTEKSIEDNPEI
T4 sequence (P07711 114-333): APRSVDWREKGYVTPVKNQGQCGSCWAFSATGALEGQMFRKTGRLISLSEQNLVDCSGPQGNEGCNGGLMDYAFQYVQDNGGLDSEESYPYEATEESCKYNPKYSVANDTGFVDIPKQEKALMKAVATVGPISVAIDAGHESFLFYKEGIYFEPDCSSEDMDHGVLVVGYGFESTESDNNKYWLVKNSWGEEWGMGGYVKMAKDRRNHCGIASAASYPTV
T5 sequence (Q95PM0 entry or part of it): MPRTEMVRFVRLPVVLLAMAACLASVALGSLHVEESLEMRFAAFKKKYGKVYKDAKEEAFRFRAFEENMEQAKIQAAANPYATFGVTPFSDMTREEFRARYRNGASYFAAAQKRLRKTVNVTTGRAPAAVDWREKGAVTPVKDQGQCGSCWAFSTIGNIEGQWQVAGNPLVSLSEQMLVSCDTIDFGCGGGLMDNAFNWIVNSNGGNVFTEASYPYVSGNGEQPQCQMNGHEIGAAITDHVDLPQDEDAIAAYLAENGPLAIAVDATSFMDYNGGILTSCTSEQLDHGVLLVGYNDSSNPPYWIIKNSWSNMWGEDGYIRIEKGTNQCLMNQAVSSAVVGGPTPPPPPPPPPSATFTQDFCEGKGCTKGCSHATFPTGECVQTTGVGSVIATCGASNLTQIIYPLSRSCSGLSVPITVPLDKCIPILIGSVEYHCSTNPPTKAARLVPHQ
T2 sequence (Q2FV99 60-206): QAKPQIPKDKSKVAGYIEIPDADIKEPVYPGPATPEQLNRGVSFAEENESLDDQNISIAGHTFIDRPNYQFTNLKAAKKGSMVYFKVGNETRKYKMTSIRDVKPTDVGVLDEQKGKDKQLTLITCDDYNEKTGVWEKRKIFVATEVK
T1 sequence (Q32ZE1 1499-1676): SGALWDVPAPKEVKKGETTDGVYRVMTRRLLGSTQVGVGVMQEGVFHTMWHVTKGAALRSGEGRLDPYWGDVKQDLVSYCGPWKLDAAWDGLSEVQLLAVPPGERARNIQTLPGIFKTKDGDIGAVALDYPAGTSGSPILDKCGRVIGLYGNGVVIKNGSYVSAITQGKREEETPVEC
T1 sequence (Q32ZE1 1421-1460): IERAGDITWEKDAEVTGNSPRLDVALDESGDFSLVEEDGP

Row | Compound | Cysteine k chem [1] [M⁻¹ s⁻¹] | inhibition at 100 µM [2] [%] | inhibition at 100 µM [3] [%] | S. I. (k 2nd/k chem) [4] | k inact [4] | KI (inactivation) [4] [µM] | inhibition at 100 µM [4] [%] | k 2nd [4] | time to quantitative reaction with cysteine [5] | inhibition at 100 µM [7] [%] | melting point [°C] | inhibition at 100 µM [8] [%] | inhibition at 100 µM [9] [%] | inhibition at 100 µM [10] [%] | further results
1 | CS(=O)(=O)c1ncc(Cl)c(C(=O)Nc2cccc(Oc3ccccc3)c2)n1 [Compound 5a] | 0.847 ± 0.277 | 23 | 6.4 | 159 | 0.0077 s⁻¹ and 0.00774 ± 0.00007 s⁻¹ | 57.6 ± 3.55 | 99 | 8,088 M^−1min^−1 and 8,088 ± 464 M^−1min^−1 | < 10 min | 6.6 | 156 | 8.8 | 24.6 |  | improvement of overall inhibition potency (k 2nd), factor ([4]; versus parent compound 4): 10; reactivity with cysteine (in words) ([5]; water/DMSO mixtures, no buffer): No reactivity; k 2nd ([6]; pH 6.5, Tris or Bis-Tris buffer): 4,384 M^−1min^−1; k 2nd ([6]; pH 7.0, Tris or Bis-Tris buffer): 8,436 M^−1min^−1; k 2nd ([6]; zwitterionic HEPES buffer at pH 7.5): 7,956 M^−1min^−1; DENV inhibition relative to the DMSO control [10]: n. i.
2 | CS(=O)(=O)c1ncc(Cl)c(C(=O)Nc2cccc(C(=O)c3ccccc3)c2)n1 [Compound 6a] | 1.06 ± 0.14 | 2.2 | 18.6 | 327 | 0.00986 ± 0.00128 s⁻¹ | 29.6 ± 9.39 | 98.4 | 20,785 ± 4,074 M^−1min^−1 |  | 5.6 | 175 | 18 |  | 5.1 | fold more potent based on the k 2nd value ([4]; versus virtual screening hit 5a): 2.5 fold; Rd inhibition relative to the DMSO control [9]: n. i.
3 | CS(=O)(=O)c1nc(Cl)cc(NC(=O)c2ccccc2Oc2ccccc2)n1 [Compound 6i] | 0 | 59.4 | 29.3 |  |  |  | 36 |  |  | 9.5 | 184 | 21.3 | 9.2 | 15 | SrtA inhibition (in words) ([4]; fluorometric enzyme assay, inhibitor concentration 100 µM): complete loss of inhibition
4 | CS(=O)(=O)c1ncc(Br)c(C(=O)Nc2cccc(C(=O)c3ccccc3)c2)n1 [Compound 7a] | 1.748 ± 0.375 |  |  | 268 | 0.01493 ± 0.00132 s⁻¹ | 32 ± 5.07 |  | 28,185 ± 2,117 M^−1min^−1 | less than 10 min |  |  |  |  |  | covalent modification of SrtA (in words) [11]: quantitative conversion
5 | CS(=O)(=O)c1ncc(Br)c(C(=O)Nc2cccc(Oc3ccccc3)c2)n1 [Compound 7b] | 1.735 ± 0.323 | 11.2 | 18.3 | 134 | 0.01285 ± 0.00147 s⁻¹ | 55.9 ± 11.6 | 99.2 | 13,998 ± 1,462 M^−1min^−1 |  | 12.5 | 153 | 28.5 | 4.7 | 5.2 | 
6 | Sortase A (SrtA) (Staphylococcus aureus) |  |  |  |  |  |  |  |  |  |  |  |  |  |  | pKa [12]: 9.4; pKa [13]: 6.3
